Measured values taken from publication PMC6104039 (Nature Communications, 2018).
Where “and” joins values, the source holds several entries; their conditions need not be identical. Equal entries are not always repeated.

Test system: SkM
Assay: Lipidomic profiling of skeletal muscle (quadriceps) of mice on chow or HFD
Type: in vivo
Excerpt: Male C57BL6/J mice were obtained from the Animal Resources Centre in Perth (WA, Australia). […] Treatment was commenced at the same time as mice were randomised to dietary groups. The experiments were approved by the UNSW animal care and ethics committee (ACEC 15/48B), and followed guidelines issued by the National Health and Medical Research Council of Australia.
Lipids were extracted from frozen tissue samples or cells using a two-phase procedure with methyl-tert-butyl ether (MTBE)/methanol/water (10:3:2.5, v/v/v)[67]. Frozen tissue samples (~20 mg) were homogenized in 0.2 mL methanol containing 0.01% butylated hydroxytoluene (BHT), using a Precellys 24 homogenizer and Cryolys cooling unit (Bertin Technologies) with CK14 (1.4-mm ceramic) beads. The homogenates were spiked with an internal standard mixture comprising 5 nmole 19:0/19:0 phosphatidylcholine and 2 nmole each of 17:0/17:0 phosphatidylethanolamine, 17:0/17:0 phosphatidylserine, 17:0/17:0 d5-diacylglycerol, 17:0/17:0 phosphatidylglycerol, 14:0/14:0/14:0/14:0 cardiolipin, 18:1/12:0 SM, 18:1/17:0 ceramide, 18:1/12:0 glucosylceramide, 18:1/12:0 lactosylceramide, 18:1/12:0 sulfatide (all from Avanti Polar Lipids, USA), and 17:0/17:0/17:0 TAG (Cayman Chemical, USA), then transferred to 10 mL screw cap glass tubes. The homogenization tubes containing beads were then washed with another 0.3 mL methanol, and this wash was combined with the first methanol extract, after which 1.7 mL MTBE was added and the samples were sonicated in an ice-cold sonicating water bath (Thermoline Scientific, Australia) for 30 min. Phase separation was induced by addition of 417 µL of mass spectrometry-grade water followed by vortexing and centrifugation at 1000 × g for 10 min. The upper organic phase was collected into 5 mL glass tubes. The lower phase was re-extracted by adding 1 mL MTBE, 300 μL methanol, and 250 μL water. The organic phases were combined in the 5 mL glass tubes and dried under vacuum in a Savant SC210 SpeedVac (Thermo Scientific), then reconstituted in 500 μL methanol and stored at −20 °C until analysis.
Lipidomic profiling was performed on a QExactive Plus mass spectrometer with heated electrospray ionization (HESI) probe and a Dionex UltiMate 2000 LC pump (Thermo Fisher Scientific). Extracts were resolved on a 2.1 × 100 mm Waters Acquity C18 UPLC column (1.7 µm […]), using a binary gradient in which mobile phase A consisted of acetonitrile:water (60:40), 10 mM ammonium formate, 0.1% formic acid; and mobile phase B was isopropanol:acetonitrile (90:10), 10 mM ammonium formate, 0.1% formic acid[68]. The flow rate was 260 µL/min and column oven 55 °C. Data was acquired in full scan/data-dependent MS^2 mode (full scan resolution 70,000 FWHM, scan range 400–1200 m/z). The ten most abundant ions in each cycle were subjected to MS^2 using an isolation window of 1.4 m/z, collision energy 30 eV, resolution 17,500, maximum integration time 110 ms and dynamic exclusion window 10 s. An exclusion list of background ions was used based on a solvent blank. LipidSearch v4.1.30 software (ThermoFisher Scientific) was used for chromatogram alignment, peak identification and integration. Each lipid peak was manually verified for column elution time and characteristic fragment ions. Data were then exported to an Excel spreadsheet for normalisation of each lipid to its class-specific internal standard, and lipid concentrations were calculated relative to the internal standard.
Data were log transformed, then subjected to two-tailed t-tests adjusted for multiple comparisons using GraphPad PRISM (Benjamini, Krieger and Yekutieli correction, Q = 1%).

[1] = 5 mg/kg daily, 4–6 weeks, HFD group

Q: Which results are given for `C[C@@](N)(CO)CCc1ccc(OCc2ccc(Cl)c(Cl)c2)cc1` [P053, (S)-2-amino-4-(4-(3,4-dichlorobenzyloxy)phenyl)-2-methylbutan-1-ol]?
A: HexCer content of SkM (5 mg/kg daily, 4–6 weeks): not significantly affected; levels of common phospholipids in SkM (5 mg/kg daily, 4–6 weeks): did not affect; total ceramide content of SkM (5 mg/kg daily, 4–6 weeks): reduced total ceramide content; 42:2 SM in SkM [1]: significantly increased; very long chain ceramides (C22:0, C24:0 and C24:1) in SkM [1]: significantly increased; mean levels of 36:1 SM in SkM, lower than vehicle (5 mg/kg daily, 4–6 weeks, both diets, not statistically significant): 13%; Ceramide 18:1/16:0 content of skeletal muscle (Chow + P053, individual mice): 3.10 and 1.77 (2×) and 2.74 and 1.05 and 2.59 and 2.04 and 2.73 and 4.80 and 1.58 and 1.47 and 1.10 and 1.69 and 1.86 and 1.78 and 2.17 and 1.48 (2×); Ceramide 18:1/18:0 content of skeletal muscle (Chow + P053, individual mice): 20.71 and 17.58 and 23.00 and 14.06 and 16.77 and 18.40 (2×) and 20.26 and 15.08 and 13.86 and 23.04 and 23.06 and 23.01 and 18.78 and 15.44 and 14.24 and 19.21 and 15.87; Ceramide 18:1/20:0 content of skeletal muscle (Chow + P053, individual mice): 0.50 and 0.38 (2×) and 0.51 and 0.33 and 0.44 and 0.57 and 0.41 and 0.18 (2×) and 0.21 and 0.17 (2×) and 0.22 and 0.15 (2×) and 0.13 and 0.20; Ceramide 18:1/22:0 content of skeletal muscle (Chow + P053, individual mice): 1.58 and 1.18 and 1.27 and 1.31 and 1.33 and 1.24 and 2.02 and 1.70 and 0.82 and 0.97 and 0.93 and 1.37 and 0.85 and 1.53 and 1.04 (2×) and 0.62 and 0.77; Ceramide 18:1/24:0 content of skeletal muscle (Chow + P053, individual mice): 2.05 and 1.75 and 2.39 and 1.84 (2×) and 2.22 and 3.08 and 3.05 and 1.41 and 1.81 and 2.08 and 2.47 and 0.10 and 2.48 and 0.14 and 1.18 and 1.87 and 1.61; Ceramide 18:1/24:1 content of skeletal muscle (Chow + P053, individual mice): 5.19 and 4.17 and 5.42 and 4.06 and 4.86 and 4.12 and 6.25 and 6.63 and 2.73 and 3.16 and 3.08 and 4.65 and 3.22 and 4.69 and 3.70 and 2.46 and 3.14 and 2.75; Ceramide 18:2/18:0 content of skeletal muscle (Chow + P053, individual mice): 1.63 and 1.36 and 1.77 and 0.81 and 1.04 and 1.34 and 1.47 (2×) and 1.60 and 2.11 and 1.87 and 1.91 and 1.85 and 1.31 and 1.49 and 1.75 and 1.71 and 1.50; SM 34:1 content of skeletal muscle (Chow + P053, individual mice): 155.00 and 75.29 and 64.44 and 51.84 and 157.48 and 87.87 and 37.17 and 61.63 and 56.39 and 26.64 and 21.61 and 27.95 and 26.10 and 29.76 and 25.67 and 36.05 and 29.79 and 28.45; SM 36:1 content of skeletal muscle (Chow + P053, individual mice): 408.35 and 391.75 and 244.36 and 209.60 and 257.92 and 303.73 and 198.39 and 281.99 and 211.03 and 160.27 and 169.50 and 130.04 and 157.61 and 130.34 and 143.84 and 173.19 and 158.59 and 154.00; SM 36:2 content of skeletal muscle (Chow + P053, individual mice): 5.68 and 10.86 and 10.80 and 2.69 and 6.07 and 9.49 and 5.32 and 8.00 and 6.39 and 4.78 and 4.58 and 3.87 and 4.48 and 3.64 and 4.59 and 6.14 and 4.52 and 4.32; SM 38:1 content of skeletal muscle (Chow + P053, individual mice): 13.22 and 12.48 and 5.72 and 6.13 and 5.91 and 5.41 and 17.63 and 9.33 and 1.53 and 1.84 and 1.68 and 1.39 and 1.34 and 1.51 and 1.41 and 1.37 and 2.56 and 1.65; SM 40:1 content of skeletal muscle (Chow + P053, individual mice): 28.35 and 29.55 and 12.61 and 11.97 and 14.98 and 15.26 and 24.07 and 17.95 and 17.87 and 21.14 and 17.97 and 25.28 and 16.09 and 25.29 and 21.99 and 14.69 and 26.69 and 18.42; SM 40:2 content of skeletal muscle (Chow + P053, individual mice): 2.18 and 3.25 and 1.19 and 1.06 and 1.18 and 0.98 and 4.74 and 3.00 and 1.89 and 2.04 and 2.38 and 2.68 and 1.85 and 2.58 and 2.52 and 1.52 and 2.57 and 1.93; SM 42:1 content of skeletal muscle (Chow + P053, individual mice): 26.96 and 32.88 and 11.84 and 14.58 and 16.55 and 13.22 and 32.58 and 20.65 and 17.62 and 18.82 and 16.13 and 27.77 and 16.56 and 31.99 and 21.25 and 13.55 and 28.43 and 16.15; SM 42:2 content of skeletal muscle (Chow + P053, individual mice): 78.98 and 85.87 and 38.45 and 39.28 and 45.06 and 42.02 and 67.24 and 61.76 and 56.89 and 58.53 and 52.21 and 80.69 and 50.18 and 74.84 and 63.29 and 51.49 and 78.04 and 54.99; SM 42:3 content of skeletal muscle (Chow + P053, individual mice): 11.26 and 12.44 and 7.12 and 5.50 and 7.16 and 6.69 and 11.58 and 9.28 and 9.04 and 9.58 and 8.81 and 14.49 and 7.86 and 11.12 and 9.61 and 8.30 and 13.11 and 8.65; total SkM TAG content, lower than HFD vehicle group (HFD + P053): 60%; Ceramide 18:1/16:0 content of skeletal muscle (HFD + P053, individual mice): 1.10 and 2.17 and 1.83 and 1.12 (2×) and 2.90 and 1.46 and 0.87 (2×) and 1.73 and 3.22 and 1.34 and 1.89 and 1.27 and 1.41 and 1.14 and 1.04 and 0.99 and 1.01; Ceramide 18:1/18:0 content of skeletal muscle (HFD + P053, individual mice): 14.13 and 13.78 and 15.90 and 15.58 and 21.96 and 19.36 and 13.96 and 15.88 and 24.31 and 19.32 and 17.61 and 21.70 and 17.37 and 21.41 and 15.56 and 12.14 and 18.07 and 11.49 and 13.22; Ceramide 18:1/20:0 content of skeletal muscle (HFD + P053, individual mice): 0.45 (2×) and 0.54 and 0.57 and 0.65 and 0.48 and 0.42 and 0.40 and 0.77 and 0.10 (2×) and 0.08 (2×) and 0.06 (2×) and 0.07 (2×) and 0.05 and 0.09; Ceramide 18:1/22:0 content of skeletal muscle (HFD + P053, individual mice): 1.69 and 1.43 and 1.68 and 1.85 and 2.17 and 1.53 and 1.50 and 1.46 and 2.26 and 1.14 and 1.16 and 1.47 and 1.36 and 1.00 and 1.18 and 0.98 and 1.30 and 1.04 and 1.72; Ceramide 18:1/24:0 content of skeletal muscle (HFD + P053, individual mice): 1.53 (2×) and 1.50 and 1.85 and 1.78 and 2.27 and 1.57 (2×) and 1.81 and 2.48 and 1.41 and 1.31 and 1.65 and 1.24 and 1.83 and 1.21 and 1.67 and 1.20 and 1.73; Ceramide 18:1/24:1 content of skeletal muscle (HFD + P053, individual mice): 4.07 and 3.37 and 3.91 and 3.88 and 4.88 and 3.55 (2×) and 3.81 and 5.60 and 2.28 and 2.44 and 3.08 and 2.82 and 2.33 and 2.75 and 2.49 and 2.86 and 2.35 and 3.30; Ceramide 18:2/18:0 content of skeletal muscle (HFD + P053, individual mice): 0.85 (2×) and 1.05 and 0.95 and 1.06 and 1.53 and 1.34 and 0.98 and 1.27 and 2.27 and 1.58 and 1.22 and 1.29 (2×) and 0.73 and 0.92 and 1.11 and 0.97 and 0.74; SM 34:1 content of skeletal muscle (HFD + P053, individual mice): 56.88 and 99.05 and 291.61 and 79.88 and 179.42 and 129.66 and 30.83 and 225.53 and 214.19 and 48.41 and 47.17 and 48.35 and 37.16 and 22.64 and 38.24 and 42.99 and 33.41 and 36.54 and 32.79
